Results reported in US20240270736A1, “MACROCYCLIC HETEROCYCLES AND USES THEREOF” (Kumquat Biosciences Inc., priority 2022, published 2024).

What was measured:
Format in all cases: binding
wildtype KRAS = target: T1, wildtype KRAS (Homo sapiens, UniProt P01116); assay: HTRF assay, interaction of wildtype KRAS with SOS1; conditions: Ras::SOS1 interaction, read-out: Inhibition of KRAS WT (IC50)
T1 construct: made in house; host or cells: E. coli, e.g. BL21 (DE3)
Description: (§1) This assay can be also used to assess a selective inhibition or reduction of signaling output of a mutant Ras protein relative to a wildtype, or relative to a different mutant Ras protein. For example, the equilibrium interaction of wildtype Kras or K-Ras mutant (e.g., wildtype or a mutant thereof) with SOS1 (e.g., hSOS1) can be assessed as a proxy or an indication for a subject compound's ability to bind and inhibit Ras protein. The HTRF assay detects from (i) a fluorescence resonance energy transfer (FRET) donor (e.g., antiGST-Europium) that is bound to GST-tagged K-Ras mutant to (ii) a FRET acceptor (e.g., anti-6His-XL665) bound to a His-tagged hSOS1.
(§2) The assay buffer can contain ˜5 mM HEPES pH 7.4, ˜150 mM NaCl, ˜ 1 mM DTT, 0.05% BSA and 0.0025% (v/v) Igepal. A Ras working solution is prepared in an assay buffer containing typically a suitable amount of the protein construct (e.g., GST-tagged K-Ras mutant) and the FRET donor (e.g., antiGST-Eu(K) from Cisbio, France). A SOS1 working solution is prepared in an assay buffer containing suitable amount of the protein construct (e.g., His-hSOS1) and the FRET acceptor (e.g., anti-6His-XL665 from Cisbio, France). A suitable amount of the protein construct will depend on the range of activity or range of IC50 values being detected or under investigation. For detecting an IC50 within a range of 500 nM, the protein constructs of the same range of molarity can be utilized.
(§3) A fixed volume of DMSO with or without test compound is transferred into a 384-well plate. Ras working solution is added to all wells of the test plate. SOS1 working solution is added to all wells except for those that are subsequently filled with inhibitor control solution. Upon incubation for about 10 minutes or longer, the fluorescence is measured with a M1000Pro plate reader (Tecan) using HTRF detection (excitation 337 nm, emission 1: 620 nm, emission 2: 665 nm). Compounds are tested in duplicate at different concentrations (for example, 10 μM, 2.5 μM, 0.63 μM, 0.16 μM, 0.04 μM, 0.01 μM test compound). The ratiometric data (i.e., emission 2 divided by emission 1) is used to calculate IC50 values against Ras using GraphPad Prism (GraphPad software). Signaling output measured in terms of IC50 values can be obtained and a ratio of IC50 against one mutant relative to another mutant can be calculated. For instance, a selective reduction of K-Ras G12D signaling output can be evidenced by a ratio greater than one. In particular, a selective reduction of K-Ras G12D signaling relative to K-Ras WT signaling is evidenced if the ratio of IC50 (against K-Ras WT) to IC50 (against K-Ras G12D) is greater than 1.

KRAS G12V = target: T2, KRAS G12V (Homo sapiens, UniProt P01116, G12V); assay: HTRF assay, interaction of KRAS G12V with SOS1; conditions: Ras::SOS1 interaction, read-out: Inhibition of KRAS G12V (IC50)
T2 construct: made in house; host or cells: E. coli, e.g. BL21 (DE3)
Description: as §1, §2, §3

KRAS G12D = target: T3, KRAS G12D (Homo sapiens, UniProt P01116, G12D); assay: HTRF assay, interaction of KRAS G12D with SOS1; conditions: Ras::SOS1 interaction, read-out: Inhibition of KRAS G12D (IC50)
T3 construct: made in house; host or cells: E. coli, e.g. BL21 (DE3)
Description: as §1, §2, §3

Measured: IC50

T1 sequence (P01116 1-188 isoform P01116-2): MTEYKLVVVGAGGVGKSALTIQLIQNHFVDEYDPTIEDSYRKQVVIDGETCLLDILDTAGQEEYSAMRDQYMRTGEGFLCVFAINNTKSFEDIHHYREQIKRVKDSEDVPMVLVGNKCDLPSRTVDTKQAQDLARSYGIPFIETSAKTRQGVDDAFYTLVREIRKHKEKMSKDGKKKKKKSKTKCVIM
T2 sequence (P01116 1-188 isoform P01116-2 G12V): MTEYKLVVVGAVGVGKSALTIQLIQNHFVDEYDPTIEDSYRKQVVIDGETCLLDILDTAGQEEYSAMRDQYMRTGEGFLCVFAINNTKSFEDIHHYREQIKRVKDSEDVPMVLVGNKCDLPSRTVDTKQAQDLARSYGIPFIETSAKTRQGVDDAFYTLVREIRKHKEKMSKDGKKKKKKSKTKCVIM
T3 sequence (P01116 1-188 isoform P01116-2 G12D): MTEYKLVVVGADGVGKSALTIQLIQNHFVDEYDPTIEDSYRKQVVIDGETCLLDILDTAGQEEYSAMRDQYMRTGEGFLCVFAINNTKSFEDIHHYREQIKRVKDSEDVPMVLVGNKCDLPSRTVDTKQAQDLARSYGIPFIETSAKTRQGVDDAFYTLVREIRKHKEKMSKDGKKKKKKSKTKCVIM

CN(C)[C@@H]1CNC(=O)CCN2CCOc3c(Cl)c(-c4ccc(F)c5sc(N)c(C#N)c45)c(F)c4nc(nc2c34)OC1 [Compound 104, 2-amino-4-((5R)-15-chloro-5-(dimethylamino)-17-fluoro-8-oxo-5,6,7,8,9,10,12,13-octahydro-4H-2,18-(azeno)benzo[6,7][1,4]oxazepino[5,4-d][1]oxa[3,5,9]triazacyclododecin-16-yl)-7-fluorobenzo[b]thiophene-3-carbonitrile]
≤ 5 µM: all assays above

CN(C)CC1/C=C/CCN2CCOc3c(Cl)c(-c4ccc(F)c5sc(N)c(C#N)c45)c(F)c4nc(nc2c34)OC1 (stereo not drawn) [Compound 110, (E)-2-amino-4-(14-chloro-5-((dimethylamino)methyl)-16-fluoro-4,5,8,9,11,12-hexahydro-2,17-(azeno)benzo[6,7][1,4]oxazepino[5,4-d][1]oxa[3,5]diazacycloundecin-15-yl)-7-fluorobenzo[b]thiophene-3-carbonitrile]
≤ 5 µM: all assays above

CN(C)CC1CCNC(=O)CN2CCOc3c(Cl)c(-c4ccc(F)c5sc(N)c(C#N)c45)c(F)c4nc(nc2c34)O1 (stereo not drawn) [Compound 158, 2-amino-4-(14-chloro-4-((dimethylamino)methyl)-16-fluoro-8-oxo-4,5,6,7,8,9,11,12-octahydro-2,17-(azeno)benzo[6,7][1,4]oxazepino[5,4-d][1]oxa[3,5,8]triazacycloundecin-15-yl)-7-fluorobenzo[b]thiophene-3-carbonitrile]
≤ 5 µM: all assays above

C[C@H]1COc2c(Cl)c(-c3ccc(F)c4sc(N)c(C#N)c34)c(F)c3nc4nc(c23)N1CCC=CCC(CN(C)C)O4 (single isomer, unassigned) [Compound 103]
≤ 5 µM: all assays above

CNCCC1CC=CCCN2CCOc3c(Cl)c(-c4ccc(F)c5sc(N)c(C#N)c45)c(F)c4nc(nc2c34)O1 (stereo not drawn) [Compound 130, 2-amino-4-(14-chloro-16-fluoro-4-(2-(methylamino)ethyl)-4,5,8,9,11,12-hexahydro-2,17-(azeno)benzo[6,7][1,4]oxazepino[5,4-d][1]oxa[3,5]diazacycloundecin-15-yl)-7-fluorobenzo[b]thiophene-3-carbonitrile]
≤ 5 µM: all assays above

CN(C)CC1CC=CCCN2CCOc3c(Cl)c(-c4ccc(F)c5sc(N)c(C#N)c45)c(F)c4nc(nc2c34)O1 (stereo not drawn) [Compound 116, 2-amino-4-(14-chloro-4-((dimethylamino)methyl)-16-fluoro-4,5,8,9,11,12-hexahydro-2,17-(azeno)benzo[6,7][1,4]oxazepino[5,4-d][1]oxa[3,5]diazacycloundecin-15-yl)-7-fluorobenzo[b]thiophene-3-carbonitrile]
≤ 5 µM: all assays above

N#Cc1c(N)sc2c(F)ccc(-c3c(Cl)c4c5c6nc(nc5c3F)OCCNC(=O)CCN6CCO4)c12 [Compound 112, 2-amino-4-(14-chloro-16-fluoro-7-oxo-4,5,6,7,8,9,11,12-octahydro-2,17-(azeno)benzo[6,7][1,4]oxazepino[5,4-d][1]oxa[3,5,9]triazacycloundecin-15-yl)-7-fluorobenzo[b]thiophene-3-carbonitrile]
≤ 5 µM: all assays above

CN(C)CC1CNC(=O)CN2CCOc3c(Cl)c(-c4ccc(F)c5sc(N)c(C#N)c45)c(F)c4nc(nc2c34)OC1 (stereo not drawn) [Compound 145, 2-amino-4-(14-chloro-5-((dimethylamino)methyl)-16-fluoro-8-oxo-4,5,6,7,8,9,11,12-octahydro-2,17-(azeno)benzo[6,7][1,4]oxazepino[5,4-d][1]oxa[3,5,8]triazacycloundecin-15-yl)-7-fluorobenzo[b]thiophene-3-carbonitrile]
≤ 5 µM: all assays above

CNCC1CCCCCCN2CCOc3c(Cl)c(-c4ccc(F)c5sc(N)c(C#N)c45)c(F)c4nc(nc2c34)O1 (stereo not drawn) [Compound 157, 2-amino-4-(15-chloro-17-fluoro-4-((methylamino)methyl)-5,6,7,8,9,10,12,13-octahydro-4H-2,18-(azeno)benzo[6,7][1,4]oxazepino[5,4-d][1]oxa[3,5]diazacyclododecin-16-yl)-7-fluorobenzo[b]thiophene-3-carbonitrile]
≤ 5 µM: all assays above

CN(C)CCC1CC=CCCN2CCOc3c(Cl)c(-c4ccc(F)c5sc(N)c(C#N)c45)c(F)c4nc(nc2c34)O1 (single isomer, unassigned) [Compound 148, 2-amino-4-(14-chloro-4-(2-(dimethylamino)ethyl)-16-fluoro-4,5,8,9,11,12-hexahydro-2,17-(azeno)benzo[6,7][1,4]oxazepino[5,4-d][1]oxa[3,5]diazacycloundecin-15-yl)-7-fluorobenzo[b]thiophene-3-carbonitrile]
≤ 5 µM: all assays above

CN1CCCCCN2CCOc3c(Cl)c(-c4ccc(F)c5sc(N)c(C#N)c45)c(F)c4nc(nc2c34)OCC2(CC2)C1 [Compound 149, 2-amino-4-(17′-chloro-19′-fluoro-7′-methyl-7′,8′,9′,10′,11′,12′,14′,15′-octahydro-4′H,6′H-spiro[cyclopropane-1,5′-[2,20](azeno)benzo[6,7][1,4]oxazepino[5,4-d][1]oxa[3,5,11]triazacyclotetradecin]-18′-yl)-7-fluorobenzo[b]thiophene-3-carbonitrile]
≤ 5 µM: all assays above

CNCC1C/C=C\CCN2CCOc3c(Cl)c(-c4ccc(F)c5sc(N)c(C#N)c45)c(F)c4nc(nc2c34)O1 (stereo not drawn) [Compound 141, (Z)-2-amino-4-(14-chloro-16-fluoro-4-((methylamino)methyl)-4,5,8,9,11,12-hexahydro-2,17-(azeno)benzo[6,7][1,4]oxazepino[5,4-d][1]oxa[3,5]diazacycloundecin-15-yl)-7-fluorobenzo[b]thiophene-3-carbonitrile]
≤ 5 µM: all assays above

CN(C)CC1CC/C=C/CCN2CCOc3c(Cl)c(-c4ccc(F)c5sc(N)c(C#N)c45)c(F)c4nc(nc2c34)O1 (stereo not drawn) [Compound 101, (E)-2-amino-4-(15-chloro-4-((dimethylamino)methyl)-17-fluoro-5,6,9,10,12,13-hexahydro-4H-2,18-(azeno)benzo[6,7][1,4]oxazepino[5,4-d][1]oxa[3,5]diazacyclododecin-16-yl)-7-fluorobenzo[b]thiophene-3-carbonitrile]
≤ 5 µM: all assays above
